# Assay results taken from article PMC8709206, “Study on Purification and Characterization of Polyphenol Oxidase from Acetes chinensis” (Molecules, 2021).
# Test system: T1, Acetes chinensis PPO (polyphenol oxidase)
# T1 construct: native enzyme purified from fresh shrimp (ammonium sulphate, DEAE, Phenyl-Sepharose HP); single SDS-PAGE band about 75 kDa
# Assay: absorbance at […] nm, Lineweaver-Burk
# Format: biochemical
# Conditions: 0.05 mol/L phosphate buffer pH 7.2, 40 °C, 40 min; Figure 2 caption names pyrocatechol, text names L-Dopa
smiles,measurement,value
N[C@@H](Cc1ccc(O)c(O)c1)C(=O)O [L-dopa],Km,846 µM
